Test results: patent publication US6699681B2, “Endothelin converting enzymes and the amyloid β peptide” (Mayo Foundation for Medical Education and Research, priority 2000, dated 2004)

Key:
[1] = system: ECE-transfected CHO cells; assay: Aβ concentration in conditioned medium of ECE-1a- or ECE-1b-transfected CHO cells; type: cell-based, hamster
Description: Human and guinea pig Aβ40 or Aβ42 was measured in plasma by sandwich ELISA as previously described (Suzuki et al., 1994, Science, 264:1336-1340) using the BAN-50/BA-27 or BAN-50/BC-05 antibody systems, respectively (Takeda; Japan). Hamster Aβ40- or Aβ42-derived from CHO cells was measured using the BNT-77/BA-27 or BNT-77/BC-05 antibody systems, respectively. Aβ concentration in samples was determined by comparison to synthetic Aβ40 or Aβ42 standards (Bachem, Switzerland). Data was obtained from triplicate wells.
In particular, the sandwich ELISA used herein was performed as follows: 96-well microtiter plates were coated overnight at 4° C. with 100 μl of a 5 μg/ml dilution of primary antibody in sodium carbonate coating buffer (SCCB; 0.1 M Na2CO3, pH 9.6). Plates were blocked overnight at 4° C. with 300 μl of BLOCKAGE Solution (PBS+1.0% BLOCKAGE (Snow Brand Milk Products, Japan), 0.05% NaN3, pH 7.4). Samples for analysis and synthetic Aβ standards (Bachem, Switzerland) were diluted in buffer EC (0.02 M NaH2PO4, 0.002 M EDTA, 0.4 M NaCl, 0.2% BSA, 0.05% CHAPS, 0.04% BLOCKAGE, 0.05% NaN3, pH 7.0) and allowed to incubate on the plates overnight at 4° C. Plates were washed twice with PBS (8 mM Na2HPO4, 1.5 mM KH2PO4, 139 mM NaCl, 2.7 mM KCl, pH 7.4) and 100 μl of secondary antibody directly coupled to HRP (EZ-LINK™ Plus Activated Peroxidase kit (contents of kit: peroxidase, 5 M sodium cyanoborohydride solution (NaBH3CN), quenching buffer (3 M ethanolamine, pH 9.0), BupH™ phosphate buffered saline, Buph™ carbonate-bicarbonate buffer), according to manufacturers directions; Pierce Chemical Co., Rockford, Ill.) was allowed to bind either 4 hrs at room temperature or overnight at 4° C. Plates were then washed twice with PBS containing 0.05% Tween 20 followed by two additional washes in PBS. […] Plates were read at 450 nm in a SpectraMax Plus spectrophotometer (Molecular Devices; Sunnyvale, Calif.) and analyzed by SOFTmax® PRO software. Aβ40 or Aβ42 were quantitated by comparison with the values obtained for each synthetic Aβ standard from the same plate. […]

SolECE-1 = target: T1, SolECE-1 (Homo sapiens, UniProt P42892); assay: Inhibition of Aβ degradation by SolECE-1, sandwich ELISA; type: biochemical; settings: inhibitor pre-incubated 15 min; phosphoramidon 150 μM; 24 hrs at 37° C.
T1 construct: a recombinant soluble form of ECE was generated (SolECE-1); made in house
T1 sequence (P42892 90-770 limits assumed): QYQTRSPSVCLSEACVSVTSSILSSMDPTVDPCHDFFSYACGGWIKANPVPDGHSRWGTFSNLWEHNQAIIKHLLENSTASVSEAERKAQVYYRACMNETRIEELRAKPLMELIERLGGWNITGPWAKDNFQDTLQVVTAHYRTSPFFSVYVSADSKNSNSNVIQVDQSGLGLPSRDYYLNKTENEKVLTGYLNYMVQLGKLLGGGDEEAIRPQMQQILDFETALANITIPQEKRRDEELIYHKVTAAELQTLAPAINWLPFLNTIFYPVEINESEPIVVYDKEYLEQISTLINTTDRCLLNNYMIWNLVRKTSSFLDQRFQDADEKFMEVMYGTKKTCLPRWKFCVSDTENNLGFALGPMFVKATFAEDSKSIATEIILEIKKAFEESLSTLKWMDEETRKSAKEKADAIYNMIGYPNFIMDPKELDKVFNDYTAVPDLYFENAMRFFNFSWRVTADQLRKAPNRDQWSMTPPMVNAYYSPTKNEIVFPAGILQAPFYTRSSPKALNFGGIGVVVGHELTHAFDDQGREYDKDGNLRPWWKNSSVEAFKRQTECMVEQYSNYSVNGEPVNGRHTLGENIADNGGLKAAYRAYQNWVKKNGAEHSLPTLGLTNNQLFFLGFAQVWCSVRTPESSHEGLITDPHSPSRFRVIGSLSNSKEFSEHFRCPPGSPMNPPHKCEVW
Description: SolECE-1 (approximately 0.2 μM) was pre-incubated for 15 min at room temperature with the ECE inhibitors PD069185 (synthesized according to published methods (Ahn et al., 1998, Biochem. Biophys. Res. Comm., 243:184-190) by the Mayo Clinic Organic Chemistry Core Facility, Jacksonville, Fla.) or phosphoramidon (150 μM), or an equal volume of vehicle (DMSO or PBS, respectively) prior to incubation with synthetic Aβ40 or Aβ42 (0.01 μM) in 50 mM MES (pH 6.5) containing 0.01% C12E10, 1 mM PMSF, 100 μM leupeptin, and 20 μM pepstatin. As a control, Aβ was incubated with Ni-NTA purified proteins from non-transfected CHO cells, or in reaction buffer alone. Following incubation for 24 hrs at 37° C., the reactions were stopped by the addition of 5 mM EDTA. Aβ concentration was then analyzed using a highly specific sandwich ELISA that captures Aβ via binding of antibody BAN-50 to the N-terminus, and detects only full-length Aβ peptides ending at residue 40 (using antibody BA-27) or 42 (using antibody BC-05). Thus, Aβ that has been further hydrolyzed will not be detected using this assay.

CC(C)C[C@H](NP(=O)(O)O[C@@H]1O[C@@H](C)[C@H](O)[C@@H](O)[C@H]1O)C(=O)N[C@@H](Cc1c[nH]c2ccccc12)C(=O)O [phosphoramidon]
reversal of the reduction in Aβ concentration in ECE-transfected cells ([1]; ECE-transfected CHO cells treated with phosphoramidon): completely reversed | phosphoramidon-induced accumulation of endogenous Aβ ([1]; parallel cultures of ECE-1a-transfected cells without synthetic Aβ, 24 hr): greater than 600% | increase in secretion of endogenous Aβ ([1]; phosphoramidon-treated ECE-transfected CHO cells, 6 hr): 1.5- to 2 fold | block of the SolECE-1-induced reduction of Aβ40 and Aβ42 (SolECE-1): completely blocked
